Earlier results, collected in publication PMC8617944, “Preclinical Pharmacokinetics and Acute Toxicity in Rats of 5-{[(2E)-3-Bromo-3-carboxyprop-2-enoyl]amino}-2-hydroxybenzoic Acid: A Novel 5-Aminosalicylic Acid Derivative with Potent Anti-Inflammatory Activity” (Molecules, 2021).

How the values were obtained:
[1] = parameters: method as in ref 32, 33 = [32]; doi:10.1016/j.arabjc.2016.12.026; 32. Cabrera Pérez L.C. Gutiérrez Sánchez M. Mendieta Wejebe J.E. Hernández Rodríguez M. Fragoso Vázquez M.J. Salazar J.R. Correa Basurto J. Padilla Martínez I.I. Rosales Hernández M.C. Novel 5-aminosa || [33]; 33. Correa Basurto J. Rosales Hernández M.C. Mendieta Wejebe J.E. Trujillo Ferrara J.G. Padilla Martínez I.I. Ramírez Durán L.A. Alemán González Duhart D. Síntesis de un derivado del ácido 5-aminosali; settings: 0.408 mM; cited from earlier work
rats = settings: rat, in vivo, po; cited from earlier work

## Nc1ccc(O)c(C(=O)O)c1 [Compound 5-ASA, 5-aminosalicylic acid]
[1]
  reduction of the free radical DPPH: about 85%
rats
  LD50: 2800 mg/kg
